{
  "source": "paper PMC6522510",
  "about": "(Nature Communications, 2019)",
  "key": {"M07e": {"tested_on": "M07e", "assay": "Secondary dose-response HTS, Cell Titer Glo", "assay_type": "cell-based, human", "details": "Homo sapiens, M-07e"}, "[1]": {"tested_on": "ML-2-luciferase/YFP+ xenograft", "assay": "In vivo efficacy, survival", "design": "species or system NSG mice", "details": "ML-2 xenograft, 50 mg kg−1 q4d, i.p."}, "MOLM-13 [2]": {"tested_on": "MOLM-13", "assay_type": "cell-based", "details": "Homo sapiens, 72 h, Cell Titer Glo"}, "[3]": {"tested_on": "MLLr primary AML blast samples", "assay": "Ex vivo drug treatment of primary AML blasts on mesenchymal stromal cells", "assay_type": "cell-based", "details": "Homo sapiens; primary blasts on MSC, 96 h, range over patient samples"}, "ML-2": {"tested_on": "ML-2", "assay_type": "cell-based", "details": "Homo sapiens, 72 h, Cell Titer Glo"}, "[4]": {"assay": "In vivo tolerability / maximum tolerated dose", "design": "species or system mice", "method": "Next, we sought to compare the in vivo efficacy of gemcitabine and cabazitaxel to the standard of care, cytarabine. Due to limitations with tolerability, we have previously treated our AML xenograft models with low-dose cytarabine[13],[31]. […] Tolerability studies of gemcitabine at the same dose and schedule was not tolerated. […] Similarly, we performed tolerability of cabazitaxel using multiple doses on an intermittent every 3 or 4-day schedule; the only tolerable dose was 5 mg/kg.\nAll animal studies were performed in accordance with Animal Care and Use Programs under protocols approved by the Institutional Animal Care and Use Committee at OSU. We have complied with the relevant ethical considerations for animal research overseen by this committee. Mice were housed in a barrier facility. Non-tumor bearing Ly5.2 C57Bl/6 (BoyJ) mice were treated with 100, 120, or 140 mg kg^−1 gemcitabine on an intermittent schedule every 3 days for 3 weeks; 3 or 6 mg kg^−1 doses were used to evaluate daily for 5 days schedule. All doses were administered by intraperitoneal injection; tolerability was assessed by daily weights and observation of changes in body condition.\nSupplementary Figure 12. Establish maximum tolerated dose of gemcitabine. Non-tumor bearing female BoyJ mice were treated on an intermittent schedule every 3 days for 3 weeks with 100, 120, or 140 m gkg-1 gemcitabine (Gem ) or treated on a daily schedule once a day for 5 days with 3 or 6 m gkg-1 Gem. Daily weight of treated mice; data reported as a percent weight loss from day 0. Arrow indicate treatment days."}, "CHRF288-11": {"tested_on": "CHRF288-11", "assay": "Secondary dose-response HTS, Cell Titer Glo", "assay_type": "cell-based, human", "details": "Homo sapiens; secondary HTS, 72 h, average of triplicate; read-out: EC50 CHRF288-11"}, "AML cell lines": {"tested_on": "AML cell lines", "assay": "Nuclear accumulation of [3H]-labelled drug", "assay_type": "cell-based, human", "details": "2 h, 1 µM"}, "[5]": {"tested_on": "AMKL primary AML blast samples", "assay": "Ex vivo drug treatment of primary AML blasts on mesenchymal stromal cells", "assay_type": "cell-based", "details": "Homo sapiens; primary blasts on MSC, 96 h"}, "U937 [6]": {"tested_on": "U937", "assay_type": "cell-based", "details": "Homo sapiens, U-937; 72 h, Cell Titer Glo"}, "CMS": {"tested_on": "CMS", "assay_type": "cell-based", "details": "Homo sapiens; 72 h, Cell Titer Glo; read-out: IC50 CMS"}, "[7]": {"tested_on": "CHRF288-11-luciferase/YFP+ xenograft", "assay": "In vivo efficacy, survival", "design": "species or system NSG mice", "details": "CHRF288-11 xenograft, 50 mg kg−1 q4d, i.p."}, "ML2": {"tested_on": "ML2", "assay": "Secondary dose-response HTS, Cell Titer Glo", "assay_type": "cell-based, human", "details": "Homo sapiens, ML-2"}, "[8]": {"tested_on": "AMKL patient-derived xenograft", "assay": "In vivo efficacy, survival", "design": "species or system NSG-SGM3 mice", "details": "AMKL PDX, 50 mg kg−1 q4d, i.p."}, "CMK": {"tested_on": "CMK", "assay": "Secondary dose-response HTS, Cell Titer Glo", "assay_type": "cell-based, human", "details": "Homo sapiens, CMK; secondary HTS, 72 h, average of triplicate; read-out: EC50 CMK"}, "[9]": {"tested_on": "Mll-PTD/wt:Flt3ITD/ITD primary transplants", "assay": "In vivo efficacy, survival", "design": "species or system mice", "details": "Mll-PTD/wt:Flt3ITD/ITD primary transplants, 50 mg kg−1 q4d, i.p."}, "MOLM-13 [10]": {"tested_on": "MOLM-13", "assay": "Secondary dose-response HTS, Cell Titer Glo", "assay_type": "cell-based, human", "details": "Homo sapiens, MOLM-13"}, "[11]": {"tested_on": "Mll PTD/wt:Flt3 ITD/ITD double knock-in primary transplant blasts (bone marrow, spleen)", "assay": "Accumulation in primary murine blasts", "assay_type": "cell-based, mouse", "details": "blasts from bone marrow or spleen", "method": "Cells were washed twice with ice-cold PBS; cell pellets were solubilized in 400 µL 1 N NaOH and agitated (300 rpm) at room temperature for 2 h. Then samples were neutralized with […] 1 M HCl; a 25 µL aliquot of lysate was used to estimate protein concentration using a Pierce BCA protein assay kit (Thermo Scientific). Total radioactivity was measured by a Tri-Carb 4810TR liquid scintillation counter (Perkin-Elmer) after mixing the sample with 4 mL of Emulsifier Safe (Perkin Elmer); the results were normalized to total protein content as measured by a Pierce BCA protein assay kit. Three independent experiments were performed in triplicate.\nBone marrow and splenocytes were isolated from mice transplanted with dKI AML and CG-V617 AMKL. Following red blood cells lysis, dKI AML leukemic blasts from vehicle treated mice were evaluated for accumulation of cytarabine and gemcitabine using the uptake assay described above.\nSupplementary Figure 5. Accumulation of cytarabine and gemcitabine .\nunlabeled and [3H]-cytarabine (Ara- C) or gemcitabine ( Gem ). Intracellular Ara- C, Gem ,\nscintillation counting and normalized to protein levels. Representative chromatogram for\nas disintegrations per minute (DPM) over complete run time. (c) Percentage of total\nindependent experiments (N=9). (d) Accumulation was determined in cell lysate of bone\ndouble knock-in primary transplant recipient. […]"}, "U937 [12]": {"tested_on": "U937", "assay": "cells", "design": "species or system AML cell lines (8); Secondary HTS, 10-point dose-response in triplicate, Cell Titer Glo viability, four-parameter fit EC50", "details": "Homo sapiens, U-937, 72 h, read-out: U937"}},
  "note": "Read-outs that look alike come from different tables or passages of the source.",
  "data": [
    {"smiles": "Nc1ccn([C@@H]2O[C@H](CO)[C@@H](O)C2(F)F)c(=O)n1", "note": "[Gemcitabine, gemcitabine]", "values": [
      {"measurement": "EC50", "setting": "M07e; secondary HTS, 72 h, average of triplicate, read-out: EC50 M07e", "result": 60, "unit": "nM"},
      {"measurement": "EC50", "setting": "M07e; secondary high-throughput screen, M07e, read-out: average effective concentration, M07e", "result": 62, "unit": "nM"},
      {"measurement": "Median survival", "setting": "[1]", "result": 45, "unit": "days"},
      {"measurement": "IC50", "setting": "MOLM-13 [2]", "result": 0.7, "unit": "nM"},
      {"measurement": "IC50", "setting": "[3]", "result": "267 to 4230", "unit": "nM"},
      {"measurement": "IC50", "setting": "ML-2", "result": 0.6, "unit": "nM"},
      {"measurement": "MTD at 5 days", "setting": "[4]; female, Ly5.2 C57Bl/6 (BoyJ), mouse, in vivo, ip, immunocompetent (BoyJ) mice, daily for 5 days, i.p., read-out: MTD, daily administration", "result": 3, "unit": "mg/kg"},
      {"measurement": "MTD, intermittent administration", "setting": "[4]; immunocompetent (BoyJ) mice, q3d for 3 weeks, i.p.", "result": 120, "unit": "mg/kg"},
      {"measurement": "tolerability", "setting": "[4]; mouse, in vivo", "result": "not tolerated"},
      {"measurement": "EC50", "setting": "CHRF288-11", "result": 3, "unit": "nM"},
      {"measurement": "nuclear accumulation, gemcitabine compared to cytarabine", "setting": "AML cell lines", "result": "5–19.8 fold"},
      {"measurement": "IC50", "setting": "[5]", "result": 108, "unit": "nM"},
      {"measurement": "IC50", "setting": "U937 [6]", "result": 31, "unit": "nM"},
      {"measurement": "IC50", "setting": "CMS", "result": 1, "unit": "nM"},
      {"measurement": "Median survival", "setting": "[7]", "result": 48, "unit": "days"},
      {"measurement": "Median survival", "setting": "[7]; x 2 cycles", "result": 66, "unit": "days"},
      {"measurement": "EC50", "setting": "ML2; secondary HTS, 72 h, average of triplicate, read-out: EC50 ML2", "result": 2, "unit": "nM"},
      {"measurement": "EC50", "setting": "ML2; secondary high-throughput screen, read-out: average effective concentration, ML-2", "result": 1.7, "unit": "nM"},
      {"measurement": "Median survival", "setting": "[8]", "result": 76, "unit": "days"},
      {"measurement": "EC50", "setting": "CMK", "result": 10, "unit": "nM"},
      {"measurement": "Median survival", "setting": "[9]", "result": 69, "unit": "days"},
      {"measurement": "EC50", "setting": "MOLM-13 [10]; secondary HTS, 72 h, average of triplicate, read-out: EC50 MOLM-13", "result": 3, "unit": "nM"},
      {"measurement": "EC50", "setting": "MOLM-13 [10]; secondary high-throughput screen, read-out: average effective concentration, MOLM-13", "result": 2.73, "unit": "nM"},
      {"measurement": "accumulation of total gemcitabine versus cytarabine", "setting": "[11]", "result": "6.0–6.7 fold"},
      {"measurement": "EC50", "setting": "U937 [12]", "result": 7.73, "unit": "nM"}
    ]}
  ]
}
